Patent publication US20260071220A1, “CONJUGATE OF NUCLEOTIDE ANALOG-CONTAINING DOUBLE-STRANDED RNAI ANALOG” (BaseCure Therapeutics LLC, priority 2022, published 2026)
“And” between values parts separate entries of the source, which are not always exact repeats. Equal entries are not always repeated. In the oligonucleotide strings, read from the 5' end, every base follows the letter of its sugar. An asterisk marks phosphorothioate; unmarked linkages are phosphodiester. Other units and linkages are bracketed, terminal groups are in braces. A string of capitals states the bases alone. {D01} = GalNAc ligand D01, attached to sense strand by a phosphodiester bond; m = 2'-O-methyl; f = 2'-fluoro

Legend:
hTLR7 = target: T1, hTLR7 (Homo sapiens, UniProt Q9NYK1); assay: Agonistic activity on hTLR7 cells (HEK BLUE, QUANTI-Blue OD650); type: cell-based; details: 24 h, transfection with RNAiMAX, maximum concentration 200 nM
T1 construct: host or cells: HEK BLUE hTLR7 (HEK293-derived SEAP reporter line)
T1 sequence (Q9NYK1 27-1049): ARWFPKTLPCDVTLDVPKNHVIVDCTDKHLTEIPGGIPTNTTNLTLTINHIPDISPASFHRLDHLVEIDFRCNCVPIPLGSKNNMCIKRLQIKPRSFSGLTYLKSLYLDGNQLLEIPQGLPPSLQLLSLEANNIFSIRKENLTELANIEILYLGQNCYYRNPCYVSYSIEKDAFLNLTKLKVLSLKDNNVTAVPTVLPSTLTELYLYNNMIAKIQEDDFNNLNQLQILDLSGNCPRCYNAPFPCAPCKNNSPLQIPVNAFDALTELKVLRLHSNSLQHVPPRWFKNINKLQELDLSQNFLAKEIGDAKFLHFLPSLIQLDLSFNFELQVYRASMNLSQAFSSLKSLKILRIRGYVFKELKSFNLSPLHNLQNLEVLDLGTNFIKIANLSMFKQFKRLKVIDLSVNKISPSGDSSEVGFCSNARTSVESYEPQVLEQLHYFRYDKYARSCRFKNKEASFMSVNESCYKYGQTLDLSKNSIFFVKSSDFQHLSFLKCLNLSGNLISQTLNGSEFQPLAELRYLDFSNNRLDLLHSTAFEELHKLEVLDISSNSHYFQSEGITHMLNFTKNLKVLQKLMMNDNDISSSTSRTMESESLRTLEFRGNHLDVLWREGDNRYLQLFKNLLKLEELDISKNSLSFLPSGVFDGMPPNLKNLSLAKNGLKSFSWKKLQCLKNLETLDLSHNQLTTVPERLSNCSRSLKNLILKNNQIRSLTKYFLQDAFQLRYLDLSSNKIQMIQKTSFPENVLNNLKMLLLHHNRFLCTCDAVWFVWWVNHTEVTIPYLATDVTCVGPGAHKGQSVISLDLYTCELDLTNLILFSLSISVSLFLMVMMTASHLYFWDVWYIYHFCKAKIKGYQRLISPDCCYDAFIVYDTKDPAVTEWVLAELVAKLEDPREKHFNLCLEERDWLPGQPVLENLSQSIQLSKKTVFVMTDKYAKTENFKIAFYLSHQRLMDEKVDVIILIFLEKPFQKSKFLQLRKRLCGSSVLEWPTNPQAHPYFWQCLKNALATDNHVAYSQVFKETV
Method: 1) The conjugate of the present invention was diluted to a concentration that was 20 times a final concentration, the diluted conjugate was mixed with RNAiMAX-OPTI MEM (RNAiMAX:OPTI MEM=3:47) at a ratio of 1:1 and incubated for 15 min at room temperature.
2) 10 μL of incubated conjugate of the present invention was added into a corresponding cell plate, with 10 concentrations in total, a maximum concentration being 200 nM, and double duplicated wells for each concentration.
10 μL of 0.5 μM BLOCK-iT™ Alexa Fluor® Red Fluorescent Control was added into 2 transfection positive control wells.
4) 90 μL of cells were seeded into a 96-well plate with the conjugate at the density of 50,000 cells/well. […]
7) Compound activity detection: 20 μL of cell supernatant was taken from each well and added into an experimental plate containing 180 μL of QUANTI-Blue™ reagent and then incubated for 1 h at 37° C., followed by detecting an absorbance values at 650 nm (OD650) using the multifunctional microplate reader Flexstation III.
Compound activity: the OD650 values were analyzed using GraphPad Prism software, and a dose effect curve of the compound was fit, and the EC50 value of the compound was calculated. […] The cell activity % value was analyzed using GraphPadPrism software, the dose effect curve of the compound was fit, and the CC50 value of the compound on cell was calculated.

AGT mRNA = assay: Mouse hAGT HDI model (liver AGT mRNA); type: in vivo; details: 5 mg/kg single s.c. dose, liver on Day 4; for AGT mRNA expression of mouse liver after administration/before administration, Average: group average (4 mice); for AGT mRNA expression of mouse liver after administration/before administration: individual animal, 5 mg/kg
Method: The targeting of a target gene in a sample to be tested and the inhibitory effect on the target gene were evaluated by a mouse model injected with pcDNA-CMV-AGT plasmids via tail vein at high pressure.
pcDNA-CMV-AGT plasmids, BALB/c female mice, DPBS (Dulbecco's phosphate buffer solution), and a conjugate of the present invention.
6 to 8-week-old BALB/c female mice were purchased, and the mice were adapted to quarantine for one week after arriving at an animal room.
On Day 0, the mice were divided into groups at random according to weight data, with 4 mice in each group, all the mice were dosed subcutaneously after grouping, with a single dose at 10 mL/kg. The mice in group 1 were dosed with DPBS; the mice in group 2 were dosed with AD-85481 at the dose of 5 mg/kg; the mice in group 3 were dosed with the conjugate 3 of the present invention at the dose of 5 mg/kg; the group 4 was dosed with the conjugate 2 of the present invention at the dose of 5 mg/kg.
On Day 3 after administration, all the mice were injected with the pcDNA-CMV-AGT plasmids at a volume of 8% of their weight via the tail vein within 5 s (injection volume (mL)=mouse weight (g)×8%). The mass of the plasmids injected into each mouse was 10 μg.
On Day 4 after administration, all groups of mice were euthanized by CO2 inhalation, and 2 liver samples were collected from each mouse. The liver samples were treated with RNAlater at 4° C. overnight, then RNAlater was removed, and subsequently the samples without RNAlater were stored at −80° C. for detecting the expression level of AGT genes.
4. In the table, the data represent AGT mRNA expression of mouse liver after administration/AGT mRNA expression of mouse liver before administration, […]

Conjugate 2: Double-stranded RNAi analog against AGT, D01 GalNAc ligand on sense strand; sense SEQ ID NO: 6, antisense SEQ ID NO: 2 containing Z (sense mA*mU*fCfCmAfCfAfAmUmGmAmGmAfGmUmAmCmA-{D01}; antisense CUCACAUGUACNCUCAUUGUGGAUGACGA; antisense: chemistry not given here; antisense strand modified, includes nucleotide analog Z, further chemistry not fully specified)
EC50 (hTLR7): > 0.2 µM | AGT mRNA expression of mouse liver after administration/before administration, Average (AGT mRNA): 3% | AGT mRNA expression of mouse liver after administration/before administration (AGT mRNA): 2% (2×) and 3% and 4%

Conjugate 3: Double-stranded RNAi analog against AGT, D01 GalNAc ligand on sense strand; sense SEQ ID NO: 7, antisense SEQ ID NO: 2 containing Z (sense mA*mU*fCfCmAfCfAfAmUmGmAfGmAmGmUmAmCmA-{D01}; antisense CUCACAUGUACNCUCAUUGUGGAUGACGA; antisense: chemistry not given here; antisense strand modified, includes nucleotide analog Z, further chemistry not fully specified)
EC50 (hTLR7): > 0.2 µM | AGT mRNA expression of mouse liver after administration/before administration, Average (AGT mRNA): 3% | AGT mRNA expression of mouse liver after administration/before administration (AGT mRNA): 3% (2×) and 2% (2×)
